In the NIST ThermoML archive (doi:10.1021/je7004402):
± gives the expanded uncertainty stated by the source.

Legend:
[1] = Liquid; Ebulliometric method (Recirculating still)
[2] = refractive index (Na D-line) (dimensionless); conditions: 298.15 K; 101.33 kPa; Liquid; Standard Abbe refractometry

CCOC=O [ethyl methanoate]
Normal boiling temperature [1]: 54.17 ± 0.2 °C
refractive index [2]: 1.35901 ± 0.00063

CC(C)c1ccccc1 [isopropylbenzene]
Normal boiling temperature [1]: 152.29 ± 0.2 °C
refractive index [2]: 1.48829 ± 0.00053

C=COC(C)=O [vinyl acetate]
Normal boiling temperature [1]: 72.80 ± 0.2 °C
refractive index [2]: 1.39236 ± 0.00053
